Reference: patent US11780826B2 (Amgen Inc., priority 2017, dated 2023)

tested on: Bovine cardiac myofibrils; assay: In vitro model of dose-dependent myofibril ATPase modulation (AC1.4, pyruvate kinase/lactate dehydrogenase-coupled ATPase assay at pCa25); assay type: biochemical; settings: concentration at which ATPase activity was 1.4-fold higher than the bottom of the dose curve, mean of a minimum of two independent tests
Method: In vitro Model of Dose-Dependent Myofibril ATPase Modulation: Dose responses were measured using a calcium-buffered, pyruvate kinase and lactate dehydrogenase-coupled ATPase assay containing the following reagents (concentrations expressed are final assay concentrations): Potassium PIPES (12 mM), MgCl2 (2 mM), ATP (1 mM), DTT (1 mM), BSA (0.1 mg/mi), NADH (0.5 mM), PEP (1.5 mM), pyruvate kinase (4 U/ml), lactate dehydrogenase (8 U/ml), and antifoam (90 ppm). The pH was adjusted to 6.80 at 22° C. by addition of potassium hydroxide.
Bovine cardiac myofibrils were obtained by homogenizing the appropriate tissue in the presence of detergent. Such treatment removes membranes and majority of soluble cytoplasmic proteins but leaves intact cardiac sarcomeric acto-myosin apparatus. Concentrations of myofibrils were adjusted to achieve the necessary rate of ATP hydrolysis (typically 0.25-1.0 mg/ml).
Assays were performed by first preparing a dilution series of test chemical entity, each with an assay mixture containing potassium Pipes, MgCl2, BSA, DTT, pyruvate kinase, lactate dehydrogenase, myofibrils, antifoam, EGTA, CaCl2, and water. The assay was started by adding an equal volume of solution containing potassium Pipes, MgCl2, BSA, DTT, ATP, NADH, PEP, antifoam, and water. ATP hydrolysis was monitored by absorbance at 340 nm. The resulting dose response curve was fit by the 4 parameter equation y=Bottom+((Top−Bottom)/(1+((EC50/X)^Hill))). […] AC1.4 values reported in the table below are mean values based on a minimum of two independent tests.

Compound	AC1.4
1-(((3S)-1-(((6R)-6-hydroxy-2-azaspiro[3.4]oct-2-yl)sulfonyl)-3-piperidinyl)carbonyl)-N-(4-(trifluoromethyl)benzyl)-D-prolinamide,1-(((3S)-1-(((6S)-6-hydroxy-2-azaspiro[3.4]oct-2-yl)sulfonyl)-3-piperidinyl)carbonyl)-N-(4-(trifluoromethyl)benzyl)-D-prolinamide [Example 750]	7.331 µM
N#CC1CN(S(=O)(=O)c2cccc(C(=O)N3c4ccccc4CC3C(=O)NCc3ccc(C(F)(F)F)cc3)c2)C1 (racemic) [Example 481, (2R)-1-((3-((3-cyano-1-azetidinyl)sulfonyl)phenyl)carbonyl)-N-(4-(trifluoromethyl)benzyl)-2,3-dihydro-1H-indole-2-carboxamide and (2S)-1-((3-((3-cyano-1-azetidinyl)sulfonyl)phenyl)carbonyl)-N-(4-(trifluoromethyl)benzyl)-2,3-dihydro-1H-indole-2-carboxamide]	2.157 µM
N#CC1CN(S(=O)(=O)N2CCC[C@H](C(=O)N3CCC[C@@H]3C(=O)N[C@@H](c3cc(F)c(Cl)cc3F)C3CNC3)C2)C1 (single isomer, unassigned) [Example 558]	2.928 µM
O=C(N[C@@H](c1cc(F)c(C(F)(F)F)cc1F)[C@H]1C[C@@H](O)C1)[C@H]1C[C@H]2C[C@H]2N1C(=O)c1ccnc(C(F)F)c1 (stereo in doubt) [Example 830, (1R,3R,5R)-N-((R)-(2,5-difluoro-4-(trifluoromethyl)phenyl)((1s,3S)-3-hydroxycyclobutyl)methyl)-2-(2-(difluoromethyl)isonicotinoyl)-2-azabicyclo[3.1.0]hexane-3-carboxamide]	0.6694 µM
N#CC1CN(S(=O)(=O)c2cccc(C(=O)N3CCC[C@@H]3C(=O)N[C@H](CC3CC3)c3ccc(C(F)(F)F)cc3)c2)C1 [Example 1, 1-(3-((3-cyano-1-azetidinyl)sulfonyl)benzoyl)-N-((1R)-2-cyclopropyl-1-(4-(trifluoromethyl)phenyl)ethyl)-D-prolinamide]	0.01405 µM
N#CC1CN(S(=O)(=O)N2CCC[C@H](C(=O)N3CCC[C@@H]3C(=O)N[C@@H](c3ccc(Cl)cc3F)C3CC3)C2)C1 [Example 2, N-((R)-(4-chloro-2-fluorophenyl)(cyclopropyl)methyl)-1-(((3S)-1-((3-cyano-1-azetidinyl)sulfonyl)-3-piperidinyl)carbonyl)-D-prolinamide]	0.01475 µM
C[C@@H](NC(=O)[C@H]1CC(F)(F)CN1C(=O)c1cccc(S(=O)(=O)N2CC(C#N)C2)c1)c1ccc(C(F)(F)F)cc1 [Example 6, 1-((3-((3-cyano-1-azetidinyl)sulfonyl)phenyl)carbonyl)-4,4-difluoro-N-((1R)-1-(4-(trifluoromethyl)phenyl)ethyl)-D-prolinamide]	0.0171 µM
N#CC1CN(S(=O)(=O)c2cccc(C(=O)N3CCC[C@@H]3C(=O)N[C@H](CC(F)(F)F)c3ccc(C(F)(F)F)cc3)c2)C1 [Example 7, 1-(3-((3-cyano-1-azetidinyl)sulfonyl)benzoyl)-N-((1R)-3,3,3-trifluoro-1-(4-(trifluoromethyl)phenyl)propyl)-D-prolinamide]	0.01905 µM
CC(C)[C@@H](NC(=O)[C@H]1CCCN1C(=O)[C@H]1CCCN(S(=O)(=O)N2CC(C#N)C2)C1)c1ccc(C(F)(F)F)cc1F [Example 9, 1-(((3S)-1-((3-cyano-1-azetidinyl)sulfonyl)-3-piperidinyl)carbonyl)-N-((1R)-1-(2-fluoro-4-(trifluoromethyl)phenyl)-2-methylpropyl)-D-prolinamide]	0.01995 µM
CC(C)[C@@H](NC(=O)[C@H]1CCCN1C(=O)c1cccc(S(=O)(=O)N2CC(C#N)C2)c1)c1ccc(C(F)(F)F)cc1F [Example 10, 1-(3-((3-cyano-1-azetidinyl)sulfonyl)benzoyl)-N-((1R)-1-(2-fluoro-4-(trifluoromethyl)phenyl)-2-methylpropyl)-D-prolinamide]	0.02115 µM
C[C@@H](NC(=O)[C@H]1CCCN1C(=O)c1cc(F)cc(S(=O)(=O)N2CC(C#N)C2)c1)c1ccc(C(F)(F)F)cc1 [Example 16, 1-((3-((3-cyano-1-azetidinyl)sulfonyl)-5-fluorophenyl)carbonyl)-N-((1R)-1-(4-(trifluoromethyl)phenyl)ethyl)-D-prolinamide]	0.0238 µM
CC[C@@H](NC(=O)[C@H]1CCCN1C(=O)[C@H]1CCCN(S(=O)(=O)N2CC(C#N)C2)C1)c1ccc(C(F)(F)F)cc1 [Example 17, 1-(((3S)-1-((3-cyano-1-azetidinyl)sulfonyl)-3-piperidinyl)carbonyl)-N-((1R)-1-(4-(trifluoromethyl)phenyl)propyl)-D-prolinamide]	0.02445 µM

The remaining lines, values ahead:

AC1.4	Compound
0.01635 µM	CC[C@@H](NC(=O)[C@H]1CCCN1C(=O)c1cccc(S(=O)(=O)N2CC(C#N)C2)c1)c1ccc(C(F)(F)F)cc1 [Example 3, 1-(3-((3-cyano-1-azetidinyl)sulfonyl)benzoyl)-N-((1R)-1-(4-(trifluoromethyl)phenyl)propyl)-D-prolinamide]
0.01635 µM	CC[C@@H](NC(=O)[C@H]1CCCN1C(=O)[C@H]1CCCN(S(=O)(=O)N2CC(C#N)C2)C1)c1ccc(C(F)(F)F)cc1F [Example 4, 1-(((3S)-1-((3-cyano-1-azetidinyl)sulfonyl)-3-piperidinyl)carbonyl)-N-((1R)-1-(2-fluoro-4-(trifluoromethyl)phenyl)propyl)-D-prolinamide]
0.01655 µM	N#CC1CN(S(=O)(=O)c2cccc(C(=O)N3C[C@H]4C[C@H]4[C@@H]3C(=O)NCc3ccc(C(F)(F)F)cc3)c2)C1 [Example 5]
0.0198 µM	N#CC1CN(S(=O)(=O)c2cccc(C(=O)N3CC(F)(F)C[C@@H]3C(=O)NCc3ccc(C(F)(F)F)cc3)c2)C1 [Example 8, 1-((3-((3-cyano-1-azetidinyl)sulfonyl)phenyl)carbonyl)-4,4-difluoro-N-(4-(trifluoromethyl)benzyl)-D-prolinamide]
0.0215 µM	N#CC1CN(S(=O)(=O)N2CCC[C@H](C(=O)N3CCC[C@@H]3C(=O)N[C@@H](c3ccc(C(F)(F)F)cc3)C3CC3)C2)C1 [Example 11, 1-(((3S)-1-((3-cyano-1-azetidinyl)sulfonyl)-3-piperidinyl)carbonyl)-N-((R)-cyclopropyl(4-(trifluoromethyl)phenyl)methyl)-D-prolinamide]
0.0216 µM	CC[C@@H](NC(=O)[C@H]1CCCN1C(=O)c1cccc(S(=O)(=O)N2CC(C#N)C2)c1)c1ccc(C(F)(F)F)cc1F [Example 12, 1-(3-((3-cyano-1-azetidinyl)sulfonyl)benzoyl)-N-((1R)-1-(2-fluoro-4-(trifluoromethyl)phenyl)propyl)-D-prolinamide]
0.0227 µM	N#CC1CN(S(=O)(=O)N2CCC[C@H](C(=O)N3CCC[C@@H]3C(=O)N[C@H](CC3CC3)c3ccc(C(F)(F)F)cc3)C2)C1 [Example 14, 1-(((3S)-1-((3-cyano-1-azetidinyl)sulfonyl)-3-piperidinyl)carbonyl)-N-((1R)-2-cyclopropyl-1-(4-(trifluoromethyl)phenyl)ethyl)-D-prolinamide]
0.02315 µM	N#CC1CN(S(=O)(=O)c2cccc(C(=O)N3CC4(CC4)C[C@@H]3C(=O)NCc3ccc(C(F)(F)F)cc3)c2)C1 [Example 15, (6R)-5-((3-((3-cyano-1-azetidinyl)sulfonyl)phenyl)carbonyl)-N-(4-(trifluoromethyl)benzyl)-5-azaspiro[2.4]heptane-6-carboxamide]
